Assay results from PMC7687369 (Antiviral Research, 2020).

Tests used:
SARS-CoV-2 [1] = format: cell-based; settings: Vero E6-hTMPRSS2 cells
SARS-CoV-2 [2] = format: cell-based
SARS-CoV-2 [3] = assay: Viral replication assay in Vero E6-hTMPRSS2 cells; format: cell-based
MERS-CoV = settings: cited from earlier work
SARS-CoV = settings: cited from earlier work

## CNc1ccc2oc(C[C@H]3O[C@@]4(CC[C@H]3C)O[C@H]([C@H](C)C(=O)c3ccc[nH]3)[C@H](C)C[C@H]4C)nc2c1C(=O)O [Calcimycin]
SARS-CoV-2 [1]
  selectivity between viral-induced cytopathogenicity and inhibition of cell viability: 18 fold

## CCN(CCO)CCCC(C)Nc1ccnc2cc(Cl)ccc12 (stereo not drawn) [Hydroxychloroquine]
SARS-CoV-2 [2]
  antiviral activity, SARS-CoV-2 RNA (in words): effective in wildtype Vero E6 cells at high micromolar concentrations
SARS-CoV-2 [1]
  anti-viral activity in the cytopathogenic effect screen (in words): negligible anti-viral activity
SARS-CoV-2 [3]
  inhibition of viral replication (in words): did not efficiently inhibit viral replication

## C[C@H](CCC(=O)O)C[C@H](C)C[C@H](C)C(=O)/C=C(\O)[C@H](C)C[C@H](C)C/C=C/[C@@H](C)[C@@H](O)[C@@H](C)[C@@H](O)C[C@@H]1CC[C@@](C)([C@H]2CC[C@@](C)([C@@H](C)O)O2)O1 [Ionomycin]
SARS-CoV-2 [1]
  selectivity between viral-induced cytopathogenicity and inhibition of cell viability: 5 fold

## CO[C@@H]1[C@@H](OC)[C@H](C)[C@@](O)(CC(=O)O)O[C@H]1[C@H](C)[C@H]1O[C@@]2(CC[C@@](C)([C@H]3CC[C@@](C)([C@@H]4O[C@@H]([C@H]5O[C@](C)(O)[C@H](C)C[C@@H]5C)C[C@@H]4O[C@@H]4C[C@H](OC)[C@@H](OC)[C@H](C)O4)O3)O2)C[C@H](O)[C@H]1C [Maduramycin]
SARS-CoV-2 [1]
  selectivity between viral-induced cytopathogenicity and inhibition of cell viability: 313 fold

## CC[C@@]1([C@@H]2O[C@@H]([C@H]3O[C@@](O)(CO)[C@H](C)C[C@@H]3C)C[C@@H]2C)CC[C@H]([C@]2(C)CC[C@]3(C[C@H](O)[C@@H](C)[C@@H]([C@@H](C)[C@@H](OC)[C@H](C)C(=O)O)O3)O2)O1 [Monensin]
MERS-CoV
  inhibition of the cytopathogenic effect of MERS-CoV: could inhibit the cytopathogenic effect of MERS-CoV
SARS-CoV
  inhibition of the cytopathogenic effect of SARS-CoV: but not SARS-CoV

## CCC(CC)COC(=O)[C@H](C)N[P@](=O)(OC[C@H]1O[C@@](C#N)(c2ccc3c(N)ncnn23)[C@H](O)[C@@H]1O)Oc1ccccc1 [Remdesivir]
SARS-CoV-2 [1]
  selectivity between viral-induced cytopathogenicity and inhibition of cell viability: > 67 fold

## CC[C@@H](C(=O)[C@@H](C)[C@@H](O)[C@H](C)[C@@H]1O[C@@H]([C@@H](CC)C(=O)O)CC[C@@H]1C)[C@H]1O[C@]2(C=C[C@@H](O)[C@]3(CC[C@@](C)([C@H]4CC[C@](O)(CC)[C@H](C)O4)O3)O2)[C@H](C)C[C@@H]1C [Salinomycin]
MERS-CoV
  inhibition of the cytopathogenic effect of MERS-CoV: could inhibit the cytopathogenic effect of MERS-CoV
SARS-CoV
  inhibition of the cytopathogenic effect of SARS-CoV: but not SARS-CoV
SARS-CoV-2 [3]
  inhibition of viral replication (in words): potent inhibition
